“And” between values parts separate entries of the source, which are not always exact repeats. Identical values can stand only once.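 Exposure lasted 48 hours, with cells grown in 96-well plates and compounds tested at five concentrations. GI50 is the concentration that inhibits growth by half. Definition used: TGI = concentration required for complete inhibition of growth.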

Among the test systems are SN12C renal; UACC-257 melanoma; RXF 393 renal; KM12 colon; NCI-H522 lung; HOP-62 NSCLC; CCRF-CEM leukemia; HCT-116 colon; MOLT-4 leukemia; MDA-MB-231 breast.
What all share (experiment): growth of human tumour cells (NCI), 48 h

Turning to `Cc1cc(Cl)ccc1N=C1NC(=O)C(CC(=O)Nc2cccc(Cl)c2)S1` (stereo unspecified), the TGI was > 100 µM with SN12C renal; > 100 µM with UACC-257 melanoma; 72.6 µM with RXF 393 renal; > 100 µM in the test on KM12 colon; > 100 µM with NCI-H522 lung; > 100 µM in the test on HOP-62 NSCLC. Moreover, the TGI with CCRF-CEM leukemia and in the test with HCT-116 colon was > 100 µM throughout.
With `O=P(CN1CCOCC1)(c1ccccc1)c1ccccc1`, the TGI with SN12C renal, in the test with UACC-257 melanoma, with RXF 393 renal, in the test on KM12 colon, in the test on NCI-H522 lung and in the test with HOP-62 NSCLC was > 100 µM throughout. Besides, the TGI in the test on CCRF-CEM leukemia, in the test on HCT-116 colon and in the test on MOLT-4 leukemia was > 100 µM throughout.
On to `COC(=O)CC1(O)C(=O)OCc2c1cc1n(c2=O)Cc2c-1nc1ccccc1c2OC` (stereo unspecified), for which the TGI is 1.84 µM in the test on SN12C renal; > 100 µM in the test with UACC-257 melanoma; 8.42 µM in the test on RXF 393 renal; > 100 µM with KM12 colon; 16.3 µM in the test on NCI-H522 lung; 0.358 µM in the test on HOP-62 NSCLC. The TGI with CCRF-CEM leukemia was 0.594 µM; in the test with HCT-116 colon, > 100 µM; in the test with MOLT-4 leukemia, 0.165 µM.
On to `COc1cccc(/C=C2\N=C(c3ccccc3)OC2=O)c1`, for which the TGI in the test with SN12C renal is > 100 µM; in the test with UACC-257 melanoma it was > 100 µM; in the test on RXF 393 renal, > 100 µM; in the test on KM12 colon it was > 100 µM; in the test with NCI-H522 lung, 42.5 µM; in the test on HOP-62 NSCLC, > 100 µM. Moreover, the TGI with MDA-MB-231 breast is > 100 µM; in the test on CCRF-CEM leukemia, 58.8 µM; with HCT-116 colon, > 100 µM.
With `COc1ccc(/C=C/C(=O)c2c(-c3ccccc3)nn(C)c(=O)c2N2CC2C)cc1` (stereo unspecified), the TGI with SN12C renal is > 100 µM; in the test on UACC-257 melanoma, > 100 µM; with RXF 393 renal, 93.6 µM; in the test with KM12 colon, > 100 µM; with NCI-H522 lung, 67.1 µM; in the test with HOP-62 NSCLC, > 100 µM. The results for the TGI with CCRF-CEM leukemia, in the test with HCT-116 colon and with MOLT-4 leukemia were 73.9 µM, > 100 µM and > 100 µM, respectively.
For the compound `COC(=O)c1c(C(=O)OC)c(-c2ccccc2)n(-c2ccccc2)c(=O)c1-c1ccccc1`, the TGI in the test on SN12C renal was > 100 µM; in the test with UACC-257 melanoma, > 100 µM; with RXF 393 renal, 60.8 µM; in the test with KM12 colon it was > 100 µM; in the test on NCI-H522 lung it was > 100 µM; in the test with HOP-62 NSCLC, > 100 µM. The TGI in the test on CCRF-CEM leukemia, in the test on HCT-116 colon and in the test with MOLT-4 leukemia was > 100 µM each time.
For the compound `Clc1ccc(C=Nc2ccc(-c3nc4ccccc4[nH]3)cc2)cc1`, the GI50 in the test on SN12C renal, in the test on UACC-257 melanoma, in the test with RXF 393 renal, in the test on KM12 colon, with NCI-H522 lung and with HOP-62 NSCLC was > 100 µM each time. Moreover, the GI50 with MDA-MB-231 breast, with CCRF-CEM leukemia and in the test on HCT-116 colon was > 100 µM each time. In addition, the TGI in the test on SN12C renal, in the test with UACC-257 melanoma, with RXF 393 renal, in the test with KM12 colon, in the test on NCI-H522 lung and with HOP-62 NSCLC was > 100 µM in each case. Also, the TGI in the test with MDA-MB-231 breast, in the test with CCRF-CEM leukemia and in the test on HCT-116 colon was > 100 µM each time.
`Cc1nc2c(C)ccc([N+](=O)[O-])c2c(NCCCN(C)C)c1C`: the TGI is > 100 µM in the test on SN12C renal; 54.5 µM in the test on UACC-257 melanoma; > 100 µM in the test on RXF 393 renal; > 100 µM with KM12 colon; > 100 µM in the test with NCI-H522 lung; > 66.6 µM with HOP-62 NSCLC. For the same compound, the TGI with CCRF-CEM leukemia, in the test with HCT-116 colon and with MOLT-4 leukemia was > 100 µM each time.
With `CCN(CC)CCOC(COc1cc(C)cc(C)c1)COc1cc(C)cc(C)c1`, the GI50 with SN12C renal was 2.62 µM; in the test on UACC-257 melanoma, 4.89 µM; with RXF 393 renal, 2.06 µM; in the test on KM12 colon, 3.04 µM; in the test with NCI-H522 lung, 4.51 µM; with HOP-62 NSCLC, 2.72 µM. For the same compound, the GI50 was 2.25 µM in the test on CCRF-CEM leukemia, 3.31 µM in the test on HCT-116 colon and 2.08 µM with MOLT-4 leukemia. For the same compound, the TGI in the test with SN12C renal was determined as 15.6 µM; in the test with UACC-257 melanoma it was 17.2 µM; in the test on RXF 393 renal it was 5.07 µM; with KM12 colon, 11.7 µM; with NCI-H522 lung it was 18.3 µM; in the test with HOP-62 NSCLC, 18.5 µM. In addition, the TGI in the test with CCRF-CEM leukemia was found to be 8.24 µM; in the test with HCT-116 colon it was 14.9 µM; in the test on MOLT-4 leukemia it was 5.73 µM.
In the case of `CC(C)c1ccc(O)c(Cc2cc(C(C)C)cc(Cc3cc(C(C)C)ccc3O)c2O)c1`, the TGI was found to be 3.16 µM with SN12C renal; 3.41 µM in the test with UACC-257 melanoma; 3.74 µM with KM12 colon; 2.92 µM in the test on NCI-H522 lung; 3.26 µM with HOP-62 NSCLC; 6.91 µM in the test on CCRF-CEM leukemia. The values for the TGI in the test with HCT-116 colon and in the test on MOLT-4 leukemia were 3.19 µM and 4.68 µM, respectively.
With `CC1[C@@]2(CCC(C)(C)O2)O[C@@H]2C=C3C4CCC5Cc6nc7c(nc6C[C@@]5(C)C4C[C@H](O)[C@@]3(C)[C@]12O)CC1CCC2C3=C[C@H]4O[C@@]5(O[C@@](C)(CO)C[C@@H]5O)C(C)[C@@]4(O)[C@]3(C)[C@@H](O)CC2[C@]1(C)C7` (stereo partly specified), the GI50 was 0.421 µM with SN12C renal; 0.0265 µM with UACC-257 melanoma; < 0.000365 µM with RXF 393 renal; 0.0446 µM with KM12 colon; 0.0132 µM in the test with NCI-H522 lung; 0.000389 µM in the test on HOP-62 NSCLC. In addition, the GI50 in the test on CCRF-CEM leukemia was 0.0017 µM; in the test on HCT-116 colon it was 0.0273 µM; in the test with MOLT-4 leukemia, 0.00141 µM. In addition, the TGI in the test with SN12C renal is 1.19 µM; with UACC-257 melanoma, 0.358 µM and 0.0847 µM; in the test with KM12 colon, 0.624 µM and 0.572 µM; with NCI-H522 lung it was 0.418 µM and 0.0804 µM; in the test with CCRF-CEM leukemia, 0.106 µM and 0.018 µM; with HCT-116 colon it was 0.719 µM and 0.493 µM.

The record behind these values is PubChem BioAssay (NCI).
